Assay results reported in publication PMC7464698, “Phenolic Composition and Skin-related Properties of the Aerial Parts Extract of Different Hemerocallis Cultivars” (Antioxidants, 2020).
In brackets after ≈: the same amount, converted by molar mass.

How the values were obtained:
[1] = biological target: T1, Porcine pancreatic elastase (Sus scrofa, UniProt P00772); assay: N-Succinyl-Ala-Ala-Ala-p-nitroanilide hydrolysis, absorbance […] nm; assay type: biochemical; conditions: read-out: IC50 [μg/mL] / Elastase Inhibition (converted)
T1 construct: gene CELA1; commercial native enzyme from pancreas (Sigma-Aldrich); mature enzyme

[2] = biological target: T2, Collagenase from Clostridium histolyticum; assay: FALGPA hydrolysis, absorbance […] nm; assay type: biochemical, Hathewaya histolytica; conditions: FALGPA 1 mM; Tricine 0.05 M pH 7.5, 0.4 M NaCl, 0.01 M CaCl2; 29 °C; 10 min preincubation; positive control
T2 construct: gene colG; commercial native enzyme preparation (Sigma-Aldrich); mixture of ColG and ColH not resolved

T1 sequence (P00772 27-266): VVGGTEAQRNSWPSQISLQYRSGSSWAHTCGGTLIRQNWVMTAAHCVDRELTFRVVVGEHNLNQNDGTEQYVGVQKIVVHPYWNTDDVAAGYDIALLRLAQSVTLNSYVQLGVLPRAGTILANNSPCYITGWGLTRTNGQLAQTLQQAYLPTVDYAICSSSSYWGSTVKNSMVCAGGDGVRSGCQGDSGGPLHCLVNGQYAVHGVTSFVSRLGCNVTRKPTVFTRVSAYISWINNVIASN

`O=C(O[C@@H]1Cc2c(O)cc(O)cc2O[C@@H]1c1cc(O)c(O)c(O)c1)c1cc(O)c(O)c(O)c1` [EGCG] was tested. Which IC50 [1] did it give?
Its IC50 is 136 µM.

And the “IC50 [μg/mL] / Collagenase Inhibition” value [2]?
Its value is 34.9 ± 0.4 µg/mL (≈ 76.1 µM).
